Measurements reported in patent publication US9241991B2, “Agents, compositions, and methods for treating pruritus and related skin conditions” (The Brigham and Women's Hospital, Inc., priority 2010, dated 2016).

What was measured:
TLR7 [1] = biological target: T1, TLR7 (Mus musculus, UniProt P58681); settings: mice; cited from earlier work
T1 construct: We found functional TLR7 receptors in small-size DRG neurons; from tissue; host or cells: small DRG neurons of mice; nape and cheek skin of live mice (C57BL/6J background, CD1)
T1 sequence (P58681 27-1050): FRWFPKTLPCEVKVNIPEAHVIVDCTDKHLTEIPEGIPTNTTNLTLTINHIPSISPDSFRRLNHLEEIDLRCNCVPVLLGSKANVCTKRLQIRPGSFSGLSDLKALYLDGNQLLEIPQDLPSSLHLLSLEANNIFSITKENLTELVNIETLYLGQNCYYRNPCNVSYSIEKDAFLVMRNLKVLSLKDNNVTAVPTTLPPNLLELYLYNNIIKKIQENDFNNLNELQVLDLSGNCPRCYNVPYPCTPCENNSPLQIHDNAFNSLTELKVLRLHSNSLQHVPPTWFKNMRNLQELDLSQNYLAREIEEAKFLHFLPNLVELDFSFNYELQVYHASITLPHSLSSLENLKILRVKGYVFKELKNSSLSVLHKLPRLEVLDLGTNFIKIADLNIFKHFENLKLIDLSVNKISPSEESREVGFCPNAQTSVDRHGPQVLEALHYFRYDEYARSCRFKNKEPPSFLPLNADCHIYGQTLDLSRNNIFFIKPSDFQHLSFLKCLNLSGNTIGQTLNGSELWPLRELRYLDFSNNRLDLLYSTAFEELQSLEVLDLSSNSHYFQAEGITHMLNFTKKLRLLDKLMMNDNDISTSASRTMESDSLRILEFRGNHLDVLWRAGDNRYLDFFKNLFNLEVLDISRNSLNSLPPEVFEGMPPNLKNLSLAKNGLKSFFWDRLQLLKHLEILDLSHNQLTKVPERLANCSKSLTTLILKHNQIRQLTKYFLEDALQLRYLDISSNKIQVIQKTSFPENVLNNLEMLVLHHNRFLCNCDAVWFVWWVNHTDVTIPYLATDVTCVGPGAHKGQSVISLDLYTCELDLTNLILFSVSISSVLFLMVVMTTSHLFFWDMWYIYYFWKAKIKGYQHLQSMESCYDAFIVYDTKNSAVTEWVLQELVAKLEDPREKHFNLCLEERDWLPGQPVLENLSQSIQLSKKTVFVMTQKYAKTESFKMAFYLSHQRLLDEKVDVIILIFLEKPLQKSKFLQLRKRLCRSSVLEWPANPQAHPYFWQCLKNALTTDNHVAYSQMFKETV

mice = assay: Imiquimod-induced scratching in Trpv1-/- and mast cell-deficient SASH mice; assay type: in vivo
TLR7 [2] = biological target: T2, TLR7 (Homo sapiens, UniProt Q9NYK1); settings: cited from earlier work
T2 construct: host or cells: human skin, clinical use (Madan et al. 2010)
T2 sequence (Q9NYK1 27-1049): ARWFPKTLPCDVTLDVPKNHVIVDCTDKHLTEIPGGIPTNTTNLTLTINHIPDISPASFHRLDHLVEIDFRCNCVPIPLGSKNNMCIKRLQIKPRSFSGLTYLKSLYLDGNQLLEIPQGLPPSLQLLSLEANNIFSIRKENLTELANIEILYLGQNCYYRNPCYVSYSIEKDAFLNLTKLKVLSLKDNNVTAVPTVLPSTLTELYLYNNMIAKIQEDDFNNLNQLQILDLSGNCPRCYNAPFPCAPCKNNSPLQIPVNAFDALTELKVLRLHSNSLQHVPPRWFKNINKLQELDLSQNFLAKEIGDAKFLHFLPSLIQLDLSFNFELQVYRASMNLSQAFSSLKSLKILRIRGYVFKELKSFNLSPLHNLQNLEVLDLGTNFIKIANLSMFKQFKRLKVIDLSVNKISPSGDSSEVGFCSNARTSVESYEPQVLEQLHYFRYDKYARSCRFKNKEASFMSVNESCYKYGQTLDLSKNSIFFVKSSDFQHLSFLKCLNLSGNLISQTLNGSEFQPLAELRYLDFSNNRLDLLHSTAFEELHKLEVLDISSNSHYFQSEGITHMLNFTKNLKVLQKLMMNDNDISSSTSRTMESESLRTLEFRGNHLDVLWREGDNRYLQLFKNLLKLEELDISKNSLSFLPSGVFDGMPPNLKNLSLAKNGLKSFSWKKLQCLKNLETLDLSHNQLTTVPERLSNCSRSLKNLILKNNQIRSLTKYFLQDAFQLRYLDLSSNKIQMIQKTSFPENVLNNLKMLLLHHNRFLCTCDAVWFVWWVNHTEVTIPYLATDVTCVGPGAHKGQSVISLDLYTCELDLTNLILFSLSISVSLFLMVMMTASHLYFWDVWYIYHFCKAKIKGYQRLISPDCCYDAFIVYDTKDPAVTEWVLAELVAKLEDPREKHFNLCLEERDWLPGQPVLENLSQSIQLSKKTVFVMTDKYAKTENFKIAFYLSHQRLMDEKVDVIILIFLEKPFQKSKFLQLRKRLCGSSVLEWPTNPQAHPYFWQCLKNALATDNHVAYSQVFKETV

TLR7 [3] = biological target: T1, TLR7; assay: Cheek model of itch versus pain, TLR7 ligands; assay type: in vivo, mice; settings: 20 μg intradermal into the cheek
Description: To distinguish itch and pain responses simultaneously, we used the cheek model by injection of chemical into cheek of mice (8). After brief anesthesia with isoflurane, we shaved mice on cheeks (approx. 5×8 mm area) two days before experiments. On the day of experiment, we injected 10 μl of reagent (50 μg compound 48/80 or 100 μg chloroquine) into the cheek and counted the number of wipes and the number of scratches for 30 min. We only counted those unilateral wipes with the forelimb that were not part of grooming behavior. One scratch was defined as a lifting of the hind paw toward the injection site on the cheek and then returning the paw to the floor or to the mouth.
To further investigate a unique role of TLR7 in itch versus pain, we used a recently developed “cheek model” of itch (Shimada, S. G. & LaMotte, R. H. Pain 139, 681-687 (2008)).

TLR7 [4] = assay: Scratches after intradermal injection in the nape of the neck, WT and Tlr7-/- mice; assay type: in vivo
Description: We next evaluated whether TLR7 plays a role in itch sensation. We counted the number of scratches (bouts) by a hindpaw of mouse following intradermal injection of pruritogenic agents in the nape of the neck.

TLR7 [5] = biological target: T1, TLR7; assay: Patch clamp recording of inward currents and action potentials in small DRG neurons, TLR7 ligands; assay type: cell-based, mice
TLR7 [6] = assay: IMQ-induced scratches after intrathecal TLR7 siRNA; assay type: in vivo; settings: siRNA 4 μg intrathecal with PEI 48 and 24 h before IMQ (20 mg, 20 μg elsewhere in the source), CD1 mice, vs NT siRNA; P<0.05
Description: (§1) 4 μg siRNA targeting TLR7 ([…] (SEQ ID NO:8)) (synthesized by Dharmacon, On-target Plus) or a non-targeting control siRNA ([…] (SEQ ID NO:9)) was administered intrathecallly to wild type (CD1) mice at 24 and 48 hours before the mice received an injection of IMQ ([…]). siRNA was dissolved in RNase-free water at 1 μg/μl as stock solution and mixed with polyethyleneimine (PEI, Fermentas Inc. Hanover, USA, 0.18 μl of PEI solution for 1 μg of siRNA), 10 minutes before injection, to increase cell membrane penetration and reduce the degradation. PEI was dissolved in 5% glucose. After behavioral testing, DRG tissues were collected for quantitative PCR analysis.

TLR7 mRNA = TLR7 mRNA levels in cervical DRGs by quantitative PCR after siRNA; assay type: in vivo, mice; settings: siRNA 4 μg intrathecal, P<0.05
Description: as §1

Compound | skin inflammation (TLR7 [1]) | reduction in imiquimod-induced scratching in mast cell-deficient SASH mice (mice; SASH mice vs WT control) [%] | imiquimod-induced scratching in Trpv1-/- mice (mice; Trpv1-/- vs WT control) | pruritus on topical application (TLR7 [2]) | itch-like scratching in cheek model (TLR7 [3]) | pain-indicative wiping in cheek model (TLR7 [3]) | dose response curve of scratching (TLR7 [4]; intradermal injection, nape) | scratches in Tlr7-/- mice versus WT (TLR7 [4]; intradermal, 100 μg) | neurons from WT mice that respond (TLR7 [5]; 500 μM, small DRG neurons) | action potentials in DRG neurons (TLR7 [5]; WT but not Tlr7-/- mice, 500 μM) | response of neurons from Tlr7-/- mice (TLR7 [5]; all 10 neurons) | inward currents in DRG neurons (TLR7 [5]; capsaicin-responsive DRG neurons of WT but not Tlr7-/- mice, imiquimod 20-500 μM) | IMQ induced scratches (TLR7 [6]) | TLR7 mRNA levels in cervical DRGs (TLR7 mRNA)
CC(C)Cn1cnc2c(N)nc3ccccc3c21 [imiquimod] | induces psoriasis-like skin inflammation | 28 | remained unaltered | frequently elicits pruritus | elicited itch-like scratching | not pain-indicative wiping behavior | inverted-U-shaped dose response curve | reduced | Eight out of 17 | induced action potentials | fail to respond | dose-dependent inward currents | – | –
TLR7 siRNA: siRNA targeting TLR7 (CCUUACACUAUUUCCGAUA, SEQ ID NO:8), synthesized by Dharmacon, On-target Plus (chemistry not given here) | – | – | – | – | – | – | – | – | – | – | – | – | significantly reduced | reduced levels
